Measurements reported in patent US7829087B2, “Methods of treating cognitive impairment” (Elan Pharmaceuticals, Inc., priority 2001, dated 2010).
“And” between values parts separate entries of the source, which are not always exact repeats. Identical values can stand only once.

Columns and labels:
[1] = tested on: LTP in the dentate gyrus; test: Aβ-mediated inhibition of LTP in the dentate gyrus in vitro (hippocampal slices, field EPSPs); assay type: cell-based, rat; conditions: for Suppression of Aβ inhibition of LTP in vitro (figure legends): dentate gyrus in vitro
Experimental: All experiments were carried out on transverse slices of the rat hippocampus (males, age 3-4 weeks, weight 40-80 g) or mice (males, age 3-4 months). The brains were rapidly removed after decapitation and placed in cold oxygenated (95% O2/5% CO2) media. Slices were cut at a thickness of 350 μm using an Intracell Plus 1000 and placed in a storage container containing oxygenated medium at room temperature (20-22° C.) for 1 hr. The slices were then transferred to a recording chamber for submerged slices and continuously superfused at a rate of 5-6 ml/min at 30-32° C. The control media contained (in mM): NaCl, 120; KCl 2.5, NaH2PO4, 1.25; NaHCO3 26; MgSO4, 2.0; CaCl2, 2.0; D-glucose 10. All solutions contained 100 μM picrotoxin (Sigma) to block GABAA-mediated activity.
Standard electrophysiological techniques were used to record field potentials. Presynaptic stimulation was applied to the medial perforant pathway of the dentate gyrus using a bipolar insulated tungsten wire electrode, and field excitatory postsynaptic potentials (EPSPs) were recorded at a control test frequency of 0.033 Hz from the middle one-third of the molecular layer of the dentate gyrus with a glass microelectrode. The inner blade of the dentate gyrus was used in all studies. In each experiment, an input-output curve (afferent stimulus intensity versus EPSP amplitude) was plotted at the test frequency. For all experiments, the amplitude of the test EPSP was adjusted to one-third of maximum (˜1.2 mV). LTP was evoked by 8 trains of high frequency stimulation (HFS), each of 8 stimuli at 200 Hz, inter-train interval 2s, with the stimulation voltage increased during the HFS so as to evoke an initial EPSP of the train of double the normal test EPSP amplitude. Control (vehicle alone) and experimental levels of LTP were measured on slices prepared from the same hippocampus. Recordings were analysed using p-CLAMP (Axon Instruments, CA, USA). The values reported herein were the means±S.E.M. for n slices. Two-tailed Student's t-test was used for statistical comparison.
Synthetic Aβ (1-42) was obtained from Bachem. For the in vitro experiments, synthetic Aβ1-42 was prepared as a stock solution of 50 μM in ammonium hydroxide (0.1%), stored at −20° C., and then added to physiological medium immediately prior to each experiment. For the in vivo experiments, synthetic Aβ(1-42) (Bachem) was re-suspended in ice-cold milliQ water or Teplow. An aliquot was removed and centrifuged at 100,000 g for 3 h, conditions known to pellet fibrils and protofibrils (Klyubin et al., 2004).
The following integrin-αv antibodies (all IgG1 isotype) were used in the studies: 18C7, 17E6 and 20A9 (all from Calbiochem). The control antibodies used were 7H10, an IgG2a mouse antibody against human ICAM-1 and 27/1, an IgG1 isotype. Other compounds used were echistatin (Source), SM256 (3-[1-[3-(N-imidazol-2-ylamino)propyl]indazol-5-ylcarbonylamino]-2(S)-(2,4,6-trimethylbenzenesulfonylamino)propionic acid trifluoroacetate) which was prepared by Elan Pharmaceuticals (recoded as ELN 151993) according to the methods of Van Maes et al, 1994, superfibernectin (Sigma) and phalloidin (Calbiochem). In the in vivo experiments, SM256 was prepared for i.p administration in a suspension of Tween 80 (Sigma) in saline (15% v/v).

[2] = tested on: LTP in the CA1 area; test: Aβ-mediated inhibition of LTP in the CA1 in vivo; design: species or system rat
[3] = tested on: Human cortical neurons; test: Amylin two component toxicity; assay type: cell-based; conditions: seed amylin 1 hour, then soluble amylin; toxicity after 1 day
Experimental: Seed or aggregated amylin (1 mM) from CPR, Inc. (641-80, lot NG-0213) was made by adding 200 μl water/mg powder and then aging the solution for three days at 37° C. Soluble amylin (5 mM) was prepared by adding 40 μl DMSO/mg powder and sonicating the mixture for 30 minutes in a water bath. Both stock solutions were aliquoted and frozen until ready for use. Soluble amylin stock was diluted to 20 μM in culture medium just prior to use and filtered through an Amicon 30 filter that had been pre-washed with water. Filtered material was then diluted to its appropriate concentration.
Human cortical neurons (at 125,000 cells/96 well) were treated for 1 hour with seed amylin at 5 μM, 100 μl/well. Cells were aspirated and soluble amylin was added back at 5 μM per 100 μl/well. For compound studies, 50 μl of 2× compound was added before adding the soluble amylin.

[4] = tested on: Aβ meshwork in human cortical cultures (HCC); test: Aβ meshwork formation on human cortical cultures (Aβ immunofluorescence); assay type: cell-based; conditions: for Inhibition of Aβ meshwork formation (in words): HCC
Experimental: (§1) Tissue culture plates were coated with polyethyleneimine (PEI) in 150 mM sodium borate, pH 8.5, and incubated overnight at room temperature. Prior to adding cells, the wells were washed with PBS and Minimal Essential Media (MEM with 10% FBS) was added until cells were ready for plating. Human fetal cerebral cortex (E13-E16) was rinsed with Hank's Balanced Salt Solution (HBSS). Tissue was triturated in 1 mg of DNAse in HBSS. This suspension was filtered through a 100 micron nylon cell strainer and spun at 250×g for 5 minutes. The cells were resuspended in trypsin and incubated at 37° C. for 20 minutes. Modified Minimal Essential Media (MMEM with 10% FBS and 1 mg of DNase) was added and the cells were resuspended; then collected again by centrifugation. Cells were resuspended in MMEM containing B27, and plated in washed PEI-coated plates at 125,000 cells/well in 96 well plates or at 2.5 million cells/well in 6 well plates. The human cortical cultures (HCC) were incubated for 3 weeks with biweekly medium exchanges prior to treatment.
(§2) Aβ was generated by adding double distilled water (ddH2O) to Aβ to make up a 1 mM stock. This was aged for 3 days at 37° C., aliquoted, and stored frozen at −20° C. Soluble Aβ was made by adding DMSO to Aβ to make a 7.5 mM stock, sonicating for 30 minutes, aliquoting, and freezing at −20° C. Neurotoxic Aβ was generated by adding ddH2O to Aβ, aliquoting, and freezing at −20° C.
HCC treated with Aβ for 72 hours were fixed with 4% paraformaldehyde, stained with 5 μg/ml anti-Aβ-3D6-biotin, and visualized with 10 μg/ml streptavidin-FITC (Jackson).

[5] = tested on: human cortical cultures (HCC); test: Aβ neurotoxicity in human cortical neurons (alamar blue); assay type: cell-based; conditions: for Maximal inhibition of toxicity (%): Aβ neurotoxicity in HCC, 3 days; for Inhibition of Aβ neurotoxicity (in words): HCC
Experimental: as §1, §2
HCC were pretreated with antibodies or ligands for 30 minutes in neuronal medium (MEM) supplemented with glutamine and penicillin/streptomycin (basal media). One micromolar Aβ in basal medium was added for 1 hour. The medium was removed and the HCC were treated with antibodies or ligands and 20 μM soluble Aβ in basal medium for 3 days. At three days, the toxicity was determined by incubating in 10% alamar blue in basal medium for two hours. Fluorescence levels were measured relative to control and Aβ treated wells in triplicate.

echistatin (QCESGPCCRNCKFLKEGTICKRARGDDMDDYCNGKTCDCPRNPHKGPAT)
Suppression of Aβ inhibition of LTP in vitro (figure legends) [1]: suppresses inhibition of LTP by Aβ | LTP in the presence of Aβ plus echistatin ([1]; echistatin 50 nM plus Aβ, n=5): 143±6% | LTP with echistatin alone ([1]; echistatin 50 nM, no Aβ): 158±5%

Cc1cc(C)c(S(=O)(=O)N[C@@H](CNC(=O)c2ccc3c(cnn3CCCNc3ncc[nH]3)c2)C(=O)O)c(C)c1.O=C(O)C(F)(F)F [SM256, 3-[1-[3-(N-imidazol-2-ylamino)propyl]indazol-5-ylcarbonylamino]-2(S)-(2,4,6-trimethylbenzenesulfonylamino)propionic acid trifluoroacetate]
Suppression of soluble Aβ inhibition of LTP in vivo (figure legends) ([2]; CA1 area in vivo): suppresses inhibition of LTP by soluble Aβ | LTP after SM256 plus soluble Aβ ([2]; SM256 40 mg in 1.2 ml vehicle i.p., Aβ 50 pmol i.c.v. 40 min later, 10 min before HFS): 133±5% | Effect of SM256 alone on baseline synaptic transmission or control LTP ([2]; SM256 40 mg in 1.2 ml vehicle, i.p.): no discernible effect on baseline synaptic transmission or control LTP | LTP in the presence of Aβ plus SM256 ([1]; SM256 10 μl M plus Aβ, n=5): 129±5% | LTP with SM256 alone ([1]; SM256 10 μl M, no Aβ): 148±7% | Suppression of Aβ inhibition of LTP in vitro (figure legends) [1]: suppresses inhibition of LTP by Aβ

C=C1[C@@H](C)[C@H]2[C@H](Cc3ccccc3)NC(=O)[C@]23[C@H](OC(C)=O)/C=C/[C@@](C)(O)C(=O)[C@@H](C)C/C=C/[C@H]3[C@@H]1O [cytochalasin D]
Protection against amylin two component toxicity (in words) [3]: amylin two component toxicity is further inhibited

Laminin
Inhibition of Aβ meshwork formation (in words) [4]: not capable of inhibiting Aβ meshwork or neurotoxicity | Maximal inhibition of toxicity (%) [5]: 20% | Inhibition of Aβ neurotoxicity (in words) [5]: not capable of inhibiting Aβ meshwork or neurotoxicity

Fibronectin: αvβ1 integrin ligand, large multidomain glycoprotein
Meshwork Inhibition ([4]; Aβ meshwork on HCC, Table 1): Yes | Inhibition of Aβ meshwork formation (in words) [4]: capable of inhibiting Aβ meshwork formation and neurotoxicity | Maximal inhibition of toxicity (%) [5]: 32% | Inhibition of Aβ neurotoxicity (in words) [5]: capable of inhibiting Aβ meshwork formation and neurotoxicity

Aβ: Synthetic Aβ (1-42) from Bachem, used to inhibit LTP
LTP (% baseline) in the presence of soluble fibril-free Aβ ([2]; Aβ 50 pmol in 5 μl i.c.v., 10 min prior to HFS, 3 h post-HFS, anaesthetized rats): 105±5% | LTP after peripheral vehicle followed by central injection of Aβ ([2]; vehicle i.p., Aβ 50 pmol i.c.v.): 103±10% | LTP (EPSP, % baseline) in the presence of Aβ alone ([1]; Aβ 500 nM, 1 h post-HFS, dentate gyrus slices): 105±3 % baseline and 105±6 % baseline and 103±3 % baseline
